{"source": "patent US4552882A", "about": "“7-(1-Pyrrolyl) derivatives of 1-ethyl-1,4-dihydro-4-oxoquinoline-3-carboxylic acids and 1-ethyl-1,4-dihydro-4-oxo-1,8-naphthyridine-3-carboxylic acids and their use as antimicrobial agents” (Provesan, SA, priority 1983, dated 1985)", "key": {"[1]": {"test_system": "Staphylococcus aureus ATCC 5488/23", "experiment": "MIC in vitro", "assay_type": "cell-based", "settings": "ATCC5488, Dextrose agar, 37° C., 20 hours", "from_the_text": "(§1) (G. L. Daquet and Y. A. Chabbect, Techniques en bacteriologie (Bacteriological techniques), vol. 3, Flammarion Medecine Sciences, Paris, 1972 and W. B. Hugo and A. D. Rusell, Pharmaceutical Microbiology, Blackwell Scientific Publications, London, (1977)). Antibiotic medium no. 1 (seed agar) (Oxoid CM 327) Tryptone-soya broth (Oxoid CM 129) Ringer's physiological solution 1/4 (oxoid BR 52) Dextrose agar (BBL-11165) 0.1 N NaOH \"Staphylococcus aureus\" ATCC 5488/23 Each of the microorganisms is seeded by streaking in tubes of Antibiotic medium No. 1 (seed agar), which are then incubated at 37° C. for 20 hours. Using a culture loop, the cultures are then seeded in tryptone-soyabroth and incubated at 37° C. for 20 hours. The culture obtained is diluted to 1/4 with Ringer's physiological solution, so as to obtain a standardized suspension of 10^7 -10^9 cfu/ml for each organism. Starting from a solution of 1,000 μg/ml in 0.1 N NaOH, each product is diluted in Dextrose agar (previously melted and maintained at 50° C.), with successive dilutions so as to obtain the following concentrations: 64--32--16--8--4--2--1--0.5--0.25--0.125 μg of derivative/ml medium. For each product, the solution of each concentration is subsequently distributed into Petri dishes 10 cm in diameter, with 10 ml of medium per dish and the same number of dishes as microorganisms to be tested. As soon as the medium has cooled, the dishes are seeded with the inoculations using 0.4 ml of inoculation per dish. They are spread with a Driglasky loop and the supernatant is removed. The seeded dishes are incubated at 37° C. for 20 hours."}, "[2]": {"test_system": "enterobacteriaceae (Pseudomonas aeruginosa)", "experiment": "in vitro antimicrobial activity compared to pipemidic acid", "assay_type": "cell-based", "method": "(§2) (G. L. Daquet and Y. A. Chabbect, Techniques en bacteriologie (Bacteriological techniques), vol. 3, Flammarion Medecine Sciences, Paris, 1972 and W. B. Hugo and A. D. Rusell, Pharmaceutical Microbiology, Blackwell Scientific Publications, London, (1977)).\n(§3) Antibiotic medium no. 1 (seed agar) (Oxoid CM 327)\n(§4) Tryptone-soya broth (Oxoid CM 129)\n(§5) Ringer's physiological solution 1/4 (oxoid BR 52) Dextrose agar (BBL-11165) 0.1 N NaOH\n(§6) Each of the microorganisms is seeded by streaking in tubes of Antibiotic medium No. 1 (seed agar), which are then incubated at 37° C. for 20 hours. Using a culture loop, the cultures are then seeded in tryptone-soyabroth and incubated at 37° C. for 20 hours. The culture obtained is diluted to 1/4 with Ringer's physiological solution, so as to obtain a standardized suspension of 10^7 -10^9 cfu/ml for each organism.\n(§7) Starting from a solution of 1,000 μg/ml in 0.1 N NaOH, each product is diluted in Dextrose agar (previously melted and maintained at 50° C.), with successive dilutions so as to obtain the following concentrations: 64--32--16--8--4--2--1--0.5--0.25--0.125 μg of derivative/ml medium.\n(§8) For each product, the solution of each concentration is subsequently distributed into Petri dishes 10 cm in diameter, with 10 ml of medium per dish and the same number of dishes as microorganisms to be tested.\n(§9) As soon as the medium has cooled, the dishes are seeded with the inoculations using 0.4 ml of inoculation per dish. They are spread with a Driglasky loop and the supernatant is removed. The seeded dishes are incubated at 37° C. for 20 hours."}, "[3]": {"test_system": "gram-positive cocci", "experiment": "in vitro antimicrobial activity compared to pipemidic acid", "assay_type": "cell-based", "method": "as §2, §3, §4, §5, §6, §7, §8, §9"}, "[4]": {"test_system": "Pseudomonas aeroginosa ADSA 47", "experiment": "MIC in vitro", "assay_type": "cell-based, Pseudomonas aeruginosa", "settings": "ADSA47, Dextrose agar, 37° C., 20 hours", "method": "as §1, with “\"Pseudomonas aeruginosa\" ADSA 47” for “\"Staphylococcus aureus\" ATCC 5488/23”"}}}
{"compound": "CCn1cc(C(=O)O)c(=O)c2ccc(-n3cccc3)cc21", "note": "[Example 1, 7-(1-pyrrolyl)-1-ethyl-1,4-dihydro-4-oxo-3-quinolinecarboxylic acid]", "values": [{"measurement": "MIC", "setting": "[1]", "value": 1, "unit": "µg/mL"}, {"measurement": "\"in vitro\" activity compared to pipemidic acid", "setting": "[2]", "value": "greater than that of pipemidic acid"}, {"measurement": "\"in vitro\" activity compared to pipemidic acid", "setting": "[3]", "value": "greater than that of pipemidic acid"}, {"measurement": "MIC", "setting": "[4]", "value": "> 64", "unit": "µg/mL"}]}
{"compound": "CCn1cc(C(=O)O)c(=O)c2cc(F)c(-n3cccc3)cc21", "note": "[Example 2, 6-fluoro-7-(1-pyrrolyl)-1-ethyl-1,4-dihydro-4-oxo-3-quinolinecarboxylic acid]", "values": [{"measurement": "MIC", "setting": "[1]", "value": 0.25, "unit": "µg/mL"}, {"measurement": "\"in vitro\" activity compared to pipemidic acid", "setting": "[2]", "value": "greater than that of pipemidic acid"}, {"measurement": "\"in vitro\" activity compared to pipemidic acid", "setting": "[3]", "value": "greater than that of pipemidic acid"}, {"measurement": "MIC", "setting": "[4]", "value": 64, "unit": "µg/mL"}]}
{"compound": "CCn1cc(C(=O)O)c(=O)c2ccc(-n3cccc3)nc21", "note": "[Example 3, 1-ethyl-1,4-dihydro-4-oxo-7-(1-pyrrolyl)-1,8-naphthyridine-3-carboxylic acid]", "values": [{"measurement": "MIC", "setting": "[1]", "value": 8, "unit": "µg/mL"}, {"measurement": "\"in vitro\" activity compared to pipemidic acid", "setting": "[3]", "value": "a greater activity"}, {"measurement": "MIC", "setting": "[4]", "value": "> 64", "unit": "µg/mL"}]}
{"compound": "CCn1cc(C(=O)O)c(=O)c2cc(F)c(-n3cccc3)nc21", "note": "[Example 4, 1-ethyl-1,4-dihydro-4-oxo-6-fluoro-7-(1-pyrrolyl)-1,8-naphthyridine-3-carboxylic acid]", "values": [{"measurement": "MIC", "setting": "[1]", "value": 0.5, "unit": "µg/mL"}, {"measurement": "\"in vitro\" activity compared to pipemidic acid", "setting": "[2]", "value": "greater than that of pipemidic acid"}, {"measurement": "\"in vitro\" activity compared to pipemidic acid", "setting": "[3]", "value": "greater than that of pipemidic acid"}, {"measurement": "MIC", "setting": "[4]", "value": "> 64", "unit": "µg/mL"}]}
{"compound": "CCn1cc(C(=O)O)c(=O)c2cnc(N3CCNCC3)nc21", "note": "[Pipemidic acid, reference compound]", "values": [{"measurement": "MIC", "setting": "[1]", "value": 64, "unit": "µg/mL"}, {"measurement": "MIC", "setting": "[4]", "value": 32, "unit": "µg/mL"}]}
